In PubChem BioAssay AID2060907 (Molecular Pharmacology Branch, DTP, NCI, 2025):
Where “and” joins values, the source holds several entries; their conditions need not be identical. Equal values may be shown once.

System: 388556-164-R-J1-PDC complex spheroid viability
Experiment: Anticancer human tumor 388556-164-R-J1-PDC patient-derived colon adenocarcinoma cell line growth inhibition [RAS]
Details: for viability, T/C: stronger effect = lower value
Procedure, shortened: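 Tumour cells grown as complex spheroids with HUVEC endothelial cells and mesenchymal stem cells, treated with RAS pathway inhibitor combinations. Each agent spans half-log steps from near clinical Cmax, or 10 microM where Cmax is unknown.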

[1] = curve of first compound, second compound 0.00316 µM
[2] = curve of first compound, second compound 0.01 µM
[3] = curve of first compound, second compound 0.0316 µM
[4] = curve of first compound, second compound 0.1 µM
[5] = curve of first compound, second compound 0.316 µM
[6] = curve of first compound, second compound 1 µM
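Note: spheroids exposed to compound for 7 days before readout.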
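Throughout, for viability, T/C: 100% = DMSO vehicle control luminescence.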

For `CC1(C)CCC(Nc2ncc(C(F)(F)F)c(-c3c[nH]c4c(P(C)(C)=O)c(C#N)ccc34)n2)CN1` (stereo not given) + C=CC(=O)N1CCN(c2nc(OCC3CCCN3C)nc3c(F)c(-c4nc(N)cc(C)c4C(F)(F)F)c(Cl)cc23)C(C)C1, the IC50 [1] was > 0.3 µM, the IC50 [2] was > 0.3 µM and the IC50 [3] was > 0.3 µM. The IC50 [4] was > 0.3 µM, the IC50 [5] was > 0.3 µM and the IC50 [6] was > 0.3 µM. It also gave a viability, T/C (second compound 0.00316 µM, first compound 0.000949 µM) of 102%, a viability, T/C (second compound 0.00316 µM, first compound 0.003 µM) of 101% and a viability, T/C (second compound 0.00316 µM, first compound 0.00949 µM) of 97%. It also gave a viability, T/C (second compound 0.00316 µM, first compound 0.03 µM) of 85%, a viability, T/C (second compound 0.00316 µM, first compound 0.0949 µM) of 95.5% and a viability, T/C (second compound 0.00316 µM, first compound 0.3 µM) of 88.1%. The viability, T/C (second compound 0.01 µM, first compound 0.000949 µM) was 101%, the viability, T/C (second compound 0.01 µM, first compound 0.003 µM) was 95.7% and the viability, T/C (second compound 0.01 µM, first compound 0.00949 µM) was 93.7%. For the same compound, the viability, T/C (second compound 0.01 µM, first compound 0.03 µM) was 99.7%, the viability, T/C (second compound 0.01 µM, first compound 0.0949 µM) was 89.2% and the viability, T/C (second compound 0.01 µM, first compound 0.3 µM) was 87.5%. The viability, T/C (second compound 0.0316 µM, first compound 0.000949 µM) was 102%, the viability, T/C (second compound 0.0316 µM, first compound 0.003 µM) was 100% and the viability, T/C (second compound 0.0316 µM, first compound 0.00949 µM) was 89.8%. The viability, T/C (second compound 0.0316 µM, first compound 0.03 µM) was 103%, the viability, T/C (second compound 0.0316 µM, first compound 0.0949 µM) was 97.8% and the viability, T/C (second compound 0.0316 µM, first compound 0.3 µM) was 96.2%. It also gave a viability, T/C (second compound 0.1 µM, first compound 0.000949 µM) of 98.4%, a viability, T/C (second compound 0.1 µM, first compound 0.003 µM) of 99.8% and a viability, T/C (second compound 0.1 µM, first compound 0.00949 µM) of 96.8%. The viability, T/C (second compound 0.1 µM, first compound 0.03 µM) was 84.7%, the viability, T/C (second compound 0.1 µM, first compound 0.0949 µM) was 99.6% and the viability, T/C (second compound 0.1 µM, first compound 0.3 µM) was 87.8%. The viability, T/C (second compound 0.316 µM, first compound 0.000949 µM) was 110%, the viability, T/C (second compound 0.316 µM, first compound 0.003 µM) was 97.6% and the viability, T/C (second compound 0.316 µM, first compound 0.00949 µM) was 102%. For the same compound, the viability, T/C (second compound 0.316 µM, first compound 0.03 µM) was 95.7%, the viability, T/C (second compound 0.316 µM, first compound 0.0949 µM) was 94.1% and the viability, T/C (second compound 0.316 µM, first compound 0.3 µM) was 92.4%. The viability, T/C (second compound 1 µM, first compound 0.000949 µM) was 91.1%, the viability, T/C (second compound 1 µM, first compound 0.003 µM) was 105% and the viability, T/C (second compound 1 µM, first compound 0.00949 µM) was 105%. It also gave a viability, T/C (second compound 1 µM, first compound 0.03 µM) of 104%, a viability, T/C (second compound 1 µM, first compound 0.0949 µM) of 94.9% and a viability, T/C (second compound 1 µM, first compound 0.3 µM) of 85%.
`CC(=O)OC12COC1CC(O)C1(C)C(=O)C(O)C3=C(C)C(OC(=O)C(O)C(NC(=O)OC(C)(C)C)c4ccccc4)CC(O)(C(OC(=O)c4ccccc4)C21)C3(C)C` (stereo not given) + C=CC(=O)N1CCN(c2nc(OCC3CCCN3C)nc3c(F)c(-c4nc(N)cc(C)c4C(F)(F)F)c(Cl)cc23)C(C)C1 was tested, and the IC50 [1] was > 10 µM, the IC50 [2] was > 10 µM and the IC50 [3] was > 10 µM. For the same compound, the IC50 [4] was > 10 µM, the IC50 [5] was > 10 µM and the IC50 [6] was > 10 µM. For the same compound, the viability, T/C (second compound 0.00316 µM, first compound 0.0316 µM) was 88.1%, the viability, T/C (second compound 0.00316 µM, first compound 0.1 µM) was 80.7% and the viability, T/C (second compound 0.00316 µM, first compound 0.316 µM) was 77%. It also gave a viability, T/C (second compound 0.00316 µM, first compound 1 µM) of 75.7%, a viability, T/C (second compound 0.00316 µM, first compound 3.16 µM) of 74.6% and a viability, T/C (second compound 0.00316 µM, first compound 10 µM) of 71.2%. The viability, T/C (second compound 0.01 µM, first compound 0.0316 µM) was 82.8%, the viability, T/C (second compound 0.01 µM, first compound 0.1 µM) was 78.8% and the viability, T/C (second compound 0.01 µM, first compound 0.316 µM) was 70.5%. The viability, T/C (second compound 0.01 µM, first compound 1 µM) was 80.3%, the viability, T/C (second compound 0.01 µM, first compound 3.16 µM) was 79.4% and the viability, T/C (second compound 0.01 µM, first compound 10 µM) was 71.8%. The viability, T/C (second compound 0.0316 µM, first compound 0.0316 µM) was 84.4%, the viability, T/C (second compound 0.0316 µM, first compound 0.1 µM) was 83.4% and the viability, T/C (second compound 0.0316 µM, first compound 0.316 µM) was 84.7%. The viability, T/C (second compound 0.0316 µM, first compound 1 µM) was 76.9%, the viability, T/C (second compound 0.0316 µM, first compound 3.16 µM) was 76% and the viability, T/C (second compound 0.0316 µM, first compound 10 µM) was 71.3%. It also gave a viability, T/C (second compound 0.1 µM, first compound 0.0316 µM) of 78.3%, a viability, T/C (second compound 0.1 µM, first compound 0.1 µM) of 69.5% and a viability, T/C (second compound 0.1 µM, first compound 0.316 µM) of 72.4%. For the same compound, the viability, T/C (second compound 0.1 µM, first compound 1 µM) was 74%, the viability, T/C (second compound 0.1 µM, first compound 3.16 µM) was 78.4% and the viability, T/C (second compound 0.1 µM, first compound 10 µM) was 73.2%. For the same compound, the viability, T/C (second compound 0.316 µM, first compound 0.0316 µM) was 78.6%, the viability, T/C (second compound 0.316 µM, first compound 0.1 µM) was 81.4% and the viability, T/C (second compound 0.316 µM, first compound 0.316 µM) was 79.1%. The viability, T/C (second compound 0.316 µM, first compound 1 µM) was 74.5%, the viability, T/C (second compound 0.316 µM, first compound 3.16 µM) was 72.7% and the viability, T/C (second compound 0.316 µM, first compound 10 µM) was 76.6%. For the same compound, the viability, T/C (second compound 1 µM, first compound 0.0316 µM) was 87.6%, the viability, T/C (second compound 1 µM, first compound 0.1 µM) was 79.3% and the viability, T/C (second compound 1 µM, first compound 0.316 µM) was 74.9%. For the same compound, the viability, T/C (second compound 1 µM, first compound 1 µM) was 82.8%, the viability, T/C (second compound 1 µM, first compound 3.16 µM) was 76% and the viability, T/C (second compound 1 µM, first compound 10 µM) was 70.5%.
With `CCC(CC)c1cc(NC2CCC(N)C2)n2nccc2n1` (stereo not given) the viability, T/C (compound 0.0316 µM) was 100% [middle of 4 runs], the viability, T/C (compound 0.1 µM) was 96.7% [middle of 4 runs] and the viability, T/C (compound 0.316 µM) was 106% (2×) and 109% and 107%. The viability, T/C (compound 1 µM) was 108% [middle of 4 runs], the viability, T/C (compound 10 µM) was 32% [middle of 4 runs] and the IC50 (curve of compound) was 2.97 µM [middle of 4 runs].
